Data on 5 compounds can be found in patent US8921366B2, “Substituted triazolo-pyridazine derivatives” (Concert Pharmaceuticals, Inc., priority 2008, dated 2014).

Data set [1] is described as follows: Pharmacokinetics after intravenous administration to rats. It counts as in vivo, Sprague-Dawley rats. The note with it: for clearance / half-life / AUC(0-t): rat, plasma, 1 mg/kg each as 1:1:1 mixture, male Sprague-Dawley rats; for AUC(0-t): read-out: AUC0-6; for AUC0-6 % Change over L-838417 / AUC0-6 relative to undeuterated L-838417 / CL % Change over L-838417 / cleared more slowly than L-838417 / longer half-life than undeuterated L-838417 / t1/2 % Change over L-838417: rats. As to the method: (§1) Three male Sprague-Dawley rats (200-250 g each) were cannulated in the jugular vein and were administered a single dose containing 1 mg/kg each of L-838417, Compound 103 and Compound 105 (as a 1:1:1 mixture containing 1 mg/mL of each of the three compounds in 10% dimethyl sulfoxide (DMSO), 10% N,N-dimethylacetamide (DMA), and 60% polyethylene glycol (PG) through the jugular cannula. Three additional male Sprague-Dawley rats (200-250 g each) were administered a single dose containing 1 mg/kg each of L-838417, Compound 103 and Compound 105 (as a 1:1:1 mixture containing 1 mg/mL of each of the three compounds in 10% dimethyl sulfoxide (DMSO), 10% N,N-dimethylacetamide (DMA), and 60% polyethylene glycol (PG) by oral gavage. Blood (0.25 mL) from intravenously treated test rats was collected retro-orbitally at 2, 5, 15, and 30 minutes, and 1, 2, 4, and 6 hours post-dosing. Blood (0.25 mL) from orally treated test rats was collected retro-orbitally at 5, 15, 30, and 45 minutes, and 1, 2, 4, and 6 hours post-dosing. Blood was collected into tubes containing K2EDTA as anticoagulant at the above mentioned time points. Blood samples were stored on ice and then centrifuged to obtain plasma. The plasma (˜[…]) was aliquoted into deep 96-well plates and stored at −80° C. until analysis by LC-MS/MS using an Applied Bio-systems API 4000 mass spectrometer.

Data set [2] can be described thus: Metabolic stability in human liver microsomes. The note with it: for stability in human liver microsomes: 30 minute incubation. The format is in vitro ADME. As to the method: (§2) Human liver microsomes (20 mg/mL) and rat liver microsomes (20 mg/mL) were obtained from Xenotech, LLC (Lenexa, Kans.). β-nicotinamide adenine dinucleotide phosphate, reduced form (NADPH), magnesium chloride (MgCl2), and dimethyl sulfoxide (DMSO) were purchased from Sigma-Aldrich. 7.5 mM stock solutions of test compounds (L-838417, Compound 101, Compound 103, Compound 104 and Compound 105) were prepared in DMSO. The 7.5 mM stock solutions were diluted to 12.5 μM in acetonitrile (ACN). The 20 mg/mL […] were diluted to […] in 0.1 M potassium phosphate buffer, pH 7.4, containing 3 mM MgCl2. The diluted microsomes (375 μL) were added to wells of a 96-well deep-well polypropylene plate in triplicate. 10 μL of the 12.5 μM test compound was added to the microsomes and the mixture was pre-warmed for 10 minutes. Reactions were initiated by addition of 125 μL pre-warmed NADPH solution. The final reaction volume is 0.5 mL and contained 0.5 mg/mL human liver microsomes, 0.25 μM test compound, and 2 mM NADPH in 0.1 M potassium phosphate buffer, pH 7.4, and 3 mM MgCl2. The reaction mixtures are incubated at 37° C., and 50 μL aliquots were removed at 0, 5, 10, 20, and 30 minutes and added to shallow-well 96-well plates which contained 50 μL of ice-cold ACN with internal standard to stop the reactions. The plates were stored at 4° C. for 20 minutes after which 100 μL of water was added to the wells of the plate before centrifugation to pellet precipitated proteins. Supernatants were transferred to another 96-well plate and analyzed for amounts of parent remaining by LC-MS/MS using an Applied Bio-systems API 4000 mass spectrometer. 7-ethoxycoumarin (1 μM) was used as a positive control. The in vitro t1/2s for test compounds were calculated from the slopes of the linear regression of % parent remaining (ln) vs incubation time relationship, using the formula: in vitro t1/2=0.693/k, where k=−[slope of linear regression of % parent remaining(ln) vs incubation time] Data analysis is performed using Microsoft Excel Software.

A short description of data set [3]: Pharmacokinetics after oral administration to rats. It counts as in vivo, Sprague-Dawley rats. To be noted: for AUC0-6 % Change over L-838417 / AUC0-6 relative to undeuterated L-838417 / Cmax % Change over L-838417 / Cmax relative to L-838417: oral, rats; for Cmax / AUC(0-t): rat, plasma, oral gavage, 1 mg/kg each as 1:1:1 mixture, male Sprague-Dawley rats; for AUC(0-t): read-out: AUC0-6. As to the method: as §1

A short description of data set [4]: Metabolic stability in rat liver microsomes. It counts as in vitro ADME. To be noted: for stability in rat microsomes / parent compound remained intact: 30 minutes incubation; for half-life at 0.25 µM: pH 7.4, calculated from slope of ln % parent remaining vs time, read-out: in vitro half-life. The protocol: as §2

As usually defined, the clearance is the volume of plasma or blood freed of the substance per unit of time. One may read the half-life as the time needed for the level to fall by half in the phase considered. For orientation: Cmax means the highest concentration seen after dosing. `[2H]C([2H])(Oc1nn2c(-c3cc(F)ccc3F)nnc2cc1C(C([2H])([2H])[2H])(C([2H])([2H])[2H])C([2H])([2H])[2H])c1ncnn1C([2H])([2H])[2H]` [Compound 105, 7-(tert-Butyl-d9)-3-(2,5-difluorophenyl)-6-((1-(methyl-d3)-1H-1,2,4-triazol-5-yl)-1,1-d2-methoxy)-[1,2,4]triazolo[4,3-b]pyridazine]: in data set [1], the clearance is 7.67 mL/min/kg, the half-life is 76.2 ± 8.4 min, the AUC(0-t) amounted to 1960 ± 190 ng·h/mL and the “AUC0-6 % Change over L-838417” value is recorded as “+136%”. In data set [1], the “AUC0-6 relative to undeuterated L-838417” value is “greater than two-fold higher”, the “CL % Change over L-838417” value is −60%, the “cleared more slowly than L-838417” value is “approximately 60%” and the “longer half-life than undeuterated L-838417” value is listed as “approximately 80%”. Moreover, the “t1/2 % Change over L-838417” value in data set [1] is “+81%”. Moreover, the “stability in human liver microsomes” value in data set [2] was “stable”. In data set [3], the “AUC0-6 % Change over L-838417” value is “+154%”; the “AUC0-6 relative to undeuterated L-838417” value is “greater than two and a half-fold higher”; the “Cmax % Change over L-838417” value is listed as “+119%”; the “Cmax relative to L-838417” value is “greater than two-fold higher”. Further, in data set [3], the Cmax was 280 ± 80 ng/mL and the AUC(0-t) was found to be 1250 ± 272 ng·h/mL. The “stability in rat microsomes” value in data set [4] is listed as “stable”.
As for `[2H]C([2H])([2H])n1ncnc1COc1nn2c(-c3cc(F)ccc3F)nnc2cc1C(C([2H])([2H])[2H])(C([2H])([2H])[2H])C([2H])([2H])[2H]` [Compound 104, 7-(tert-Butyl-d9)-3-(2,5-difluorophenyl)-6-((1-(methyl-d3)-1H-1,2,4-triazol-5-yl)-methoxy)-[1,2,4]triazolo[4,3-b]pyridazine], in data set [2], the “stability in human liver microsomes” value is listed as “stable”. The “stability in rat microsomes” value in data set [4] was “stable”.
With `Cn1ncnc1COc1nn2c(-c3cc(F)ccc3F)nnc2cc1C(C)(C)C` [Compound L-838417, 7-tert-butyl-3-(2,5-difluorophenyl)-6-(1-methyl-1H-1,2,4-triazol-5-ylmethoxy)[1,2,4]triazolo[4,3-b]pyridazine, reference compound], in data set [1], the clearance was 18.3 mL/min/kg, the half-life was 42 ± 2.4 min and the AUC(0-t) was 831 ± 86 ng·h/mL. In data set [2] (30 minutes incubation, 0.25 μM test compound, 37° C.), the “parent compound remained intact” value is listed as “approximately 70%”. In addition, the half-life at 0.25 µM in data set [2] (pH 7.4, calculated from slope of ln % parent remaining vs time, read-out: in vitro half life) was 54.4 min. For the same compound, in data set [3], the Cmax came out at 128 ± 40 ng/mL and the AUC(0-t) turned out to be 491 ± 95 ng·h/mL. In addition, in data set [4], the “parent compound remained intact” value is “approximately 70%” and the half-life at 0.25 µM is 50.5 min.
As to `[2H]C([2H])([2H])C(c1cc2nnc(-c3cc(F)ccc3F)n2nc1OCc1ncnn1C)(C([2H])([2H])[2H])C([2H])([2H])[2H]` [Compound 103, 7-(tert-Butyl-d9)-3-(2,5-difluorophenyl)-6-((1-methyl-1H-1,2,4-triazol-5-yl)methoxy)-[1,2,4]triazolo[4,3-b]pyridazine], in data set [1], the clearance was 8 mL/min/kg, the half-life is 75 ± 8.4 min, the AUC(0-t) was 1920 ± 200 ng·h/mL and the “AUC0-6 % Change over L-838417” value is reported as “+131%”. In data set [1], the “AUC0-6 relative to undeuterated L-838417” value is recorded as “greater than two-fold higher”, the “CL % Change over L-838417” value is listed as −62%, the “cleared more slowly than L-838417” value is on record as “approximately 60%” and the “longer half-life than undeuterated L-838417” value is on record as “approximately 80%”. Besides, the “t1/2 % Change over L-838417” value in data set [1] was “+79%”. Also, in data set [2], the “stability in human liver microsomes” value is reported as “stable”. In addition, in data set [3], the “AUC0-6 % Change over L-838417” value is reported as “+156%”; the “AUC0-6 relative to undeuterated L-838417” value is “greater than two and a half-fold higher”; the “Cmax % Change over L-838417” value is recorded as “+116%”; the “Cmax relative to L-838417” value is “greater than two-fold higher”. Moreover, in data set [3], the peak concentration (Cmax) is 277 ± 76 ng/mL and the AUC(0-t) was found to be 1260 ± 289 ng·h/mL. In addition, the “stability in rat microsomes” value in data set [4] is on record as “stable”.
On to `[2H]C([2H])(Oc1nn2c(-c3cc(F)ccc3F)nnc2cc1C(C)(C)C)c1ncnn1C([2H])([2H])[2H]` [Compound 101, 7-tert-Butyl-3-(2,5-difluorophenyl)-6-((1-(methyl-d3)-1H-1,2,4-triazol-5-yl)-1,1-d2-methoxy)-[1,2,4]triazolo[4,3-b]pyridazine], for which the “stability in human liver microsomes” value in data set [2] is “stable”. Further, in data set [4], the “parent compound remained intact” value is “approximately 70%” and the half-life at 0.25 µM is 52.7 min.
